Data taken from patent US20050245399A1, “Pyrazole derivatives as herbicidal compositions containing them” (ISHIHARA SANGYO KAISHA, LTD., priority 2004, published 2005).
One block for each molecule: values may come before it.

Assays:
[1] = tested on: velvetleaf (Abutilon theophrasti), ABUTH; experiment: Test Example 2 post-emergence (foliage treatment) herbicidal activity, ABUTH; format: in vivo; conditions: 63 g a.i./ha
Summary of the method: (§1)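 A small sprayer delivered the diluted WP or EC formulation (500 L/ha water, 0.1% v/v spreader) over emerged seedlings in upland soil pots. Damage relative to untreated plants was graded visually from 0 to 100% three weeks or so later (days 20-23).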

[2] = tested on: rice (Oryza sativa L.), ORYSA; experiment: Test Example 2 post-emergence (foliage treatment) herbicidal activity, ORYSA; format: in vivo; conditions: 63 g a.i./ha
Summary of the method: (§2)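 Greenhouse pot test with upland field soil. Treatment: foliage spray, active ingredient at a predetermined amount, 500 L/ha, spreader 0.1% (v/v); leaf stage 0.1-1.5 (AMARE), 1.1-2.1 (ECHCG), 1.0-2.0 (DIGSA), 1.0-2 (ORYSA). Endpoint: visual % control, d20-23.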

[3] = tested on: velvetleaf (Abutilon theophrasti): ABUTH; experiment: Test Example 1 pre-emergence herbicidal activity, ABUTH; format: in vivo; conditions: Rate 63 g a.i./ha, visually observed 20th to 23rd day after application
Summary of the method: (§3)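 Compound was delivered by small sprayer to sown upland soil one day after sowing, before emergence, at 500 L/ha spray volume. Plant growth was assessed visually around 3 weeks later (days 20–23), 100% denoting complete kill.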

[4] = tested on: crabgrass (Digitaria sanguinalis L.), DIGSA; experiment: Test Example 2 post-emergence (foliage treatment) herbicidal activity, DIGSA; format: in vivo; conditions: 63 g a.i./ha
Summary of the method: as §2

[5] = tested on: corn (Zea mays L.), ZEAMX; experiment: Test Example 2 post-emergence (foliage treatment) herbicidal activity, ZEAMX; format: in vivo; conditions: 63 g a.i./ha
Summary of the method: as §1

[6] = tested on: soybean (Glycine max Merr.): GLXMA; experiment: Test Example 1 pre-emergence herbicidal activity, GLXMA; format: in vivo; conditions: Rate 63 g a.i./ha, visually observed 20th to 23rd day after application
Summary of the method: as §3

[7] = tested on: crabgrass (Digitaria sanguinalis L.): DIGSA; experiment: Test Example 1 pre-emergence herbicidal activity, DIGSA; format: in vivo; conditions: Rate 63 g a.i./ha, visually observed 20th to 23rd day after application
Summary of the method: as §3

[8] = tested on: barnyardgrass (Echinochloa crus-galli L.), ECHCG; experiment: Test Example 2 post-emergence (foliage treatment) herbicidal activity, ECHCG; format: in vivo; conditions: 63 g a.i./ha
Summary of the method: as §2

[9] = tested on: green foxtail (Setaria viridis L.), SETVI; experiment: Test Example 2 post-emergence (foliage treatment) herbicidal activity, SETVI; format: in vivo; conditions: 63 g a.i./ha
Summary of the method: as §1

[10] = tested on: wheat (Triticum aestivum L.): TRZAX; experiment: Test Example 1 pre-emergence herbicidal activity, TRZAX; format: in vivo; conditions: Rate 63 g a.i./ha, visually observed 20th to 23rd day after application
Summary of the method: as §3

[11] = tested on: prickly sida (Sida spinosa L.): SEDSP; experiment: Test Example 1 pre-emergence herbicidal activity, SIDSP; format: in vivo; conditions: Rate 63 g a.i./ha, visually observed 20th to 23rd day after application
Summary of the method: as §3

[12] = tested on: rice (Oryza sativa L.: ORYSA); experiment: Test Example 3 water application herbicidal activity (paddy), transplanted rice ORYSA; format: in vivo; conditions: 63 g a.i./ha, water application 4th day after transplantation of 2 leaf stage rice, visually observed 21st day after application; 0 = untreated control, 100 = complete kill
Summary of the method: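 Rice at 2-leaf stage is transplanted into flooded puddled soil and treated by water application 4 days later, at a predetermined active-ingredient dose. Crop injury is rated visually as growth control (0–100%) 21 days after treatment.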

[13] = tested on: wheat (Triticum aestivum L.), TRZAX; experiment: Test Example 2 post-emergence (foliage treatment) herbicidal activity, TRZAX; format: in vivo; conditions: 63 g a.i./ha
Summary of the method: as §1

[14] = tested on: rice (Oryza sativa L.): ORYSA; experiment: Test Example 1 pre-emergence herbicidal activity, ORYSA; format: in vivo; conditions: Rate 63 g a.i./ha, visually observed 20th to 23rd day after application
Summary of the method: as §3

[15] = tested on: green foxtail (Setaria viridis L.): SETVI; experiment: Test Example 1 pre-emergence herbicidal activity, SETVI; format: in vivo; conditions: Rate 63 g a.i./ha, visually observed 20th to 23rd day after application
Summary of the method: as §3

[16] = tested on: barnyardgrass (Echinochiloa oryzicola: ECHOR); experiment: Test Example 3 water application herbicidal activity (paddy), ECHOR; format: in vivo; conditions: 63 g a.i./ha, water application under submerged condition at 0.5 leaf stage, visually observed 14th day after application; 0 = untreated control, 100 = complete kill
Summary of the method: (§4)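 Submerged application in flooded paddy soil (3–4 cm water); weeds treated at 0.5-leaf stage, transplanted rice 4 d after transplanting. Scored visually as % growth control: weeds at 14 d, rice at 21 d.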

[17] = tested on: redroot pigweed (Amaranthus retroflexus L.): AMARE; experiment: Test Example 1 pre-emergence herbicidal activity, AMARE; format: in vivo; conditions: Rate 63 g a.i./ha, visually observed 20th to 23rd day after application
Summary of the method: as §3

[18] = tested on: barnyardgrass (Echinochloa crus-galli L.): ECHCG; experiment: Test Example 1 pre-emergence herbicidal activity, ECHCG; format: in vivo; conditions: Rate 63 g a.i./ha, visually observed 20th to 23rd day after application
Summary of the method: as §3

[19] = tested on: japanese ribbon wapato (Sagittaria pygmaea: SA GPY); experiment: Test Example 3 water application herbicidal activity (paddy), SAGPY; format: in vivo; conditions: 63 g a.i./ha, water application under submerged condition, tubers planted, visually observed 14th day after application; 0 = untreated control, 100 = complete kill
Summary of the method: as §4

[20] = tested on: prickly sida (Sida spinosa L.), SIDSP; experiment: Test Example 2 post-emergence (foliage treatment) herbicidal activity, SIDSP; format: in vivo; conditions: 63 g a.i./ha
Summary of the method: as §1

[21] = tested on: japanese bulrush (Scirpus juncoides: SCPJO); experiment: Test Example 3 water application herbicidal activity (paddy), SCPJO; format: in vivo; conditions: 63 g a.i./ha, water application under submerged condition at 0.5 leaf stage, visually observed 14th day after application; 0 = untreated control, 100 = complete kill
Summary of the method: as §4

[22] = tested on: corn (Zea mays L.): ZEAMX; experiment: Test Example 1 pre-emergence herbicidal activity, ZEAMX; format: in vivo; conditions: Rate 63 g a.i./ha, visually observed 20th to 23rd day after application
Summary of the method: as §3

[23] = tested on: redroot pigweed (Amaranthus retroflexus L.), AMARE; experiment: Test Example 2 post-emergence (foliage treatment) herbicidal activity, AMARE; format: in vivo; conditions: 63 g a.i./ha
Summary of the method: as §2

[24] = tested on: soybean (Glycine max Merr.), GLXMA; experiment: Test Example 2 post-emergence (foliage treatment) herbicidal activity, GLXMA; format: in vivo; conditions: 63 g a.i./ha
Summary of the method: as §1

Structure (SMILES): COc1c(Cl)cc(F)c(-c2nn(C)c(OC(F)F)c2Cl)c1NC=O [Compound 1-4, [3-chloro-6-[4-chloro-5-(difluoromethoxy)-1-methyl-1H-pyrazol-3-yl]-5-fluoro-2-methoxyphenyl]-formamide]
growth controlling degree, ABUTH [1]: 100% | growth controlling degree, ORYSA [2]: 50% | Pre-emergence Herbicidal Activity ABUTH (growth controlling degree) [3]: 100% | growth controlling degree, DIGSP [4]: 100% | growth controlling degree, ZEAMX [5]: 80% | Pre-emergence Herbicidal Activity GLXMA (growth controlling degree) [6]: 40% | Pre-emergence Herbicidal Activity DIGSP (growth controlling degree) [7]: 100% | growth controlling degree, ECHCO [8]: 100% | growth controlling degree, SETVI [9]: 100% | Pre-emergence Herbicidal Activity TRZAX (growth controlling degree) [10]: 40% | Pre-emergence Herbicidal Activity SIDSP (growth controlling degree) [11]: 100% | growth controlling degrees (%) ORYSA [12]: 70% | growth controlling degree, TRZAX [13]: 50% | Pre-emergence Herbicidal Activity ORYSA (growth controlling degree) [14]: 80% | Pre-emergence Herbicidal Activity SETVI (growth controlling degree) [15]: 100% | growth controlling degrees (%) ECHOR [16]: 100% | Pre-emergence Herbicidal Activity AMARE (growth controlling degree) [17]: 100% | Pre-emergence Herbicidal Activity ECHCG (growth controlling degree) [18]: 95% | growth controlling degrees (%) SAGPY [19]: 98% | melting point: 100 to 103 °C | growth controlling degree, SIDSP [20]: 100% | growth controlling degrees (%) SCPJO [21]: 100% | Pre-emergence Herbicidal Activity ZEAMX (growth controlling degree) [22]: 40% | growth controlling degree, AMARE [23]: 100% | growth controlling degree, GLXMA [24]: 80%

melting point: 35 to 37 °C
Structure (SMILES): COc1c(Cl)cc(F)c(-c2nn(C)c(OC(F)F)c2Cl)c1NC(=O)OCc1ccccn1 [Compound 1-69, [3-chloro-6-[4-chloro-5-(difluoromethoxy)-1-methyl-1H-pyrazol-3-yl]-5-fluoro-2-methoxyphenyl]-carbamic acid, 2-pyridinylmethyl ester]
growth controlling degree, ABUTH [1]: 100% | growth controlling degree, ORYSA [2]: 95% | Pre-emergence Herbicidal Activity ABUTH (growth controlling degree) [3]: 100% | growth controlling degree, DIGSP [4]: 70% | growth controlling degree, ZEAMX [5]: 95% | Pre-emergence Herbicidal Activity GLXMA (growth controlling degree) [6]: 10% | Pre-emergence Herbicidal Activity DIGSP (growth controlling degree) [7]: 100% | growth controlling degree, ECHCO [8]: 100% | growth controlling degree, SETVI [9]: 100% | Pre-emergence Herbicidal Activity TRZAX (growth controlling degree) [10]: 0% | Pre-emergence Herbicidal Activity SIDSP (growth controlling degree) [11]: 100% | growth controlling degree, TRZAX [13]: 50% | Pre-emergence Herbicidal Activity ORYSA (growth controlling degree) [14]: 10% | Pre-emergence Herbicidal Activity SETVI (growth controlling degree) [15]: 100% | Pre-emergence Herbicidal Activity AMARE (growth controlling degree) [17]: 100% | Pre-emergence Herbicidal Activity ECHCG (growth controlling degree) [18]: 80% | growth controlling degree, SIDSP [20]: 100% | Pre-emergence Herbicidal Activity ZEAMX (growth controlling degree) [22]: 10% | growth controlling degree, AMARE [23]: 100% | growth controlling degree, GLXMA [24]: 95%

Structure (SMILES): C#CCNc1c(OC(F)F)c(Cl)cc(F)c1-c1nn(C)c(OC(F)F)c1Cl [Compound 1-87]
growth controlling degree, ABUTH [1]: 100% | growth controlling degree, ORYSA [2]: 70% | Pre-emergence Herbicidal Activity ABUTH (growth controlling degree) [3]: 80% | growth controlling degree, DIGSP [4]: 100% | growth controlling degree, ZEAMX [5]: 100% | Pre-emergence Herbicidal Activity GLXMA (growth controlling degree) [6]: 40% | Pre-emergence Herbicidal Activity DIGSP (growth controlling degree) [7]: 100% | growth controlling degree, ECHCO [8]: 100% | growth controlling degree, SETVI [9]: 100% | Pre-emergence Herbicidal Activity TRZAX (growth controlling degree) [10]: 10% | Pre-emergence Herbicidal Activity SIDSP (growth controlling degree) [11]: 98% | growth controlling degrees (%) ORYSA [12]: 70% | growth controlling degree, TRZAX [13]: 50% | Pre-emergence Herbicidal Activity ORYSA (growth controlling degree) [14]: 60% | Pre-emergence Herbicidal Activity SETVI (growth controlling degree) [15]: 100% | growth controlling degrees (%) ECHOR [16]: 100% | Pre-emergence Herbicidal Activity AMARE (growth controlling degree) [17]: 100% | Pre-emergence Herbicidal Activity ECHCG (growth controlling degree) [18]: 100% | growth controlling degrees (%) SAGPY [19]: 100% | growth controlling degree, SIDSP [20]: 100% | growth controlling degrees (%) SCPJO [21]: 100% | Pre-emergence Herbicidal Activity ZEAMX (growth controlling degree) [22]: 0% | growth controlling degree, AMARE [23]: 100% | growth controlling degree, GLXMA [24]: 95%

Structure (SMILES): COCCOC(=O)Nc1c(OC)c(Cl)cc(F)c1-c1nn(C)c(OC(F)F)c1Cl [Compound 1-61]
growth controlling degree, ABUTH [1]: 100% | growth controlling degree, ORYSA [2]: 80% | Pre-emergence Herbicidal Activity ABUTH (growth controlling degree) [3]: 100% | growth controlling degree, DIGSP [4]: 100% | growth controlling degree, ZEAMX [5]: 80% | Pre-emergence Herbicidal Activity GLXMA (growth controlling degree) [6]: 10% | Pre-emergence Herbicidal Activity DIGSP (growth controlling degree) [7]: 100% | growth controlling degree, ECHCO [8]: 100% | growth controlling degree, SETVI [9]: 100% | Pre-emergence Herbicidal Activity TRZAX (growth controlling degree) [10]: 50% | Pre-emergence Herbicidal Activity SIDSP (growth controlling degree) [11]: 100% | growth controlling degrees (%) ORYSA [12]: 95% | growth controlling degree, TRZAX [13]: 60% | Pre-emergence Herbicidal Activity ORYSA (growth controlling degree) [14]: 70% | Pre-emergence Herbicidal Activity SETVI (growth controlling degree) [15]: 100% | growth controlling degrees (%) ECHOR [16]: 100% | Pre-emergence Herbicidal Activity AMARE (growth controlling degree) [17]: 100% | Pre-emergence Herbicidal Activity ECHCG (growth controlling degree) [18]: 100% | growth controlling degrees (%) SAGPY [19]: 100% | growth controlling degree, SIDSP [20]: 100% | growth controlling degrees (%) SCPJO [21]: 90% | Pre-emergence Herbicidal Activity ZEAMX (growth controlling degree) [22]: 30% | growth controlling degree, AMARE [23]: 100% | growth controlling degree, GLXMA [24]: 80%
